Laboratory results reported in ChEMBL document CHEMBL1135585, “Mixed steroidal 1,2,4,5-tetraoxanes: antimalarial and antimycobacterial activity” (J Med Chem, 2002).
“And” between values parts separate entries of the source, which are not always exact repeats. Equal entries are not always repeated.

Columns and labels:
[1] = system: Mycobacterium tuberculosis; assay: In vitro anti-mycobacterial activity against Mycobacterium tuberculosis strain H37Rv; type: functional
[2] = system: Vero; assay: In vitro cytotoxicity against VERO cell line; type: functional, cell-based; conditions: Chlorocebus sabaeus
[3] = system: Mycobacterium tuberculosis; assay: In vitro inhibitory activity against Mycobacterium tuberculosis strain H37Rv at a concentration of 6.25 ug/mL; type: functional
[4] = system: Plasmodium falciparum
Description: In vitro inhibitory activity against chloroquine-resistant Plasmodium falciparum W2 Indochina

[5] = system: Plasmodium falciparum; remark: listed apart in the source
Description: In vitro inhibitory activity against chloroquine-sensitive Plasmodium falciparum African D6

| SMILES | MIC [1] | IC50 [2] | inhibition at 6.25 µg/mL [3] | IC50 [4] | IC50 [5] |
| --- | --- | --- | --- | --- | --- |
| NNC(=O)c1ccncc1 [ISONIAZID] | 0.05 µg/mL and 0.36 µM | > 1000 µg/mL and > 7 mM | – | – | – |
| CC(=O)O[C@H]1C[C@H]2[C@@H]([C@H](OC(C)=O)C[C@@H]3CC4(CC[C@@]32C)OOC2(CCC(C)CC2)OO4)[C@@H]2CCC(C(C)CCC(N)=O)[C@@]12C (stereo in doubt; 12) | 3.13 µg/mL and 4.94 µM | 3.49 µg/mL and 5.51 µM | 99% | 0.58 nM | 1.17 nM |
| CC(=O)O[C@H]1C[C@H]2[C@@H]([C@H](OC(C)=O)C[C@@H]3CC4(CC[C@@]32C)OOC2(CCC(C)CC2)OO4)[C@@H]2CCC(C(C)CCC(=O)O)[C@@]12C (stereo in doubt; 4g) | > 6.25 µg/mL and > 9.84 µM | – | 21% | 0.98 nM | 1.53 nM |
| CO[C@H]1/C=C/O[C@@]2(C)Oc3c(C)c(O)c4c(O)c(c(/C=N/N5CCN(C)CC5)c(O)c4c3C2=O)NC(=O)/C(C)=C\C=C\[C@H](C)[C@H](O)[C@@H](C)[C@@H](O)[C@@H](C)[C@H](OC(C)=O)[C@@H]1C [RIFAMPIN] | 0.12 µg/mL and 0.15 µM | 111 µg/mL and 134 µM | – | – | – |
| CCNC(=O)CCC(C)C1CC[C@H]2[C@@H]3[C@H](OC(C)=O)C[C@@H]4CC5(CC[C@]4(C)[C@H]3C[C@H](OC(C)=O)[C@]12C)OOC1(CCC(C)CC1)OO5 (stereo in doubt; 14) | 3.13 µg/mL and 4.73 µM | 5.37 µg/mL and 8.11 µM | 98% | 3.93 nM | 5.8 nM |
| COC(=O)CCC(C)C1CC[C@H]2[C@@H]3[C@H](OC(C)=O)C[C@@H]4CC5(CC[C@]4(C)[C@H]3C[C@H](OC(C)=O)[C@]12C)OOC1(CCC(C)CC1)OO5 (stereo in doubt; 3g) | > 6.25 µg/mL and > 9.63 µM | – | 29% | 5.05 nM | 9.99 nM |
| CCCNC(=O)CCC(C)C1CC[C@H]2[C@@H]3[C@H](OC(C)=O)C[C@@H]4CC5(CC[C@]4(C)[C@H]3C[C@H](OC(C)=O)[C@]12C)OOC1(CCC(C)CC1)OO5 (stereo in doubt; 15) | 6.25 µg/mL and 9.25 µM | 8.34 µg/mL and 12.3 µM | 94% | 3.82 nM | 3.22 nM |
| CNC(=O)CCC(C)C1CC[C@H]2[C@@H]3[C@H](OC(C)=O)C[C@@H]4CC5(CC[C@]4(C)[C@H]3C[C@H](OC(C)=O)[C@]12C)OOC1(CCC(C)CC1)OO5 (stereo in doubt; 13) | 6.25 µg/mL and 9.65 µM | 5.69 µg/mL and 8.78 µM | 98% | 3.61 nM | 5.96 nM |
